Source: patent US20220387405A1, “METHODS OF TREATMENT WITH N-((R)-1-(3-CHLOROPYRIDIN-2-YL)-2,2,2-TRIFLUOROETHYL)-2-((S)-2,6-DIOXOPIPERIDIN-3-YL)-1-OXOISOINDOLINE-5-CARBOXAMIDE” (CELGENE CORPORATION, priority 2021, published 2022)
Like-named read-outs stand apart in the source and are kept apart here.

Assays:
[1] = test system: AML cell lines with TP53 loss or mutation; assay: Activity against AML cell lines with TP53 loss or mutation; format: cell-based
Text: The remaining 5 cell lines were either medium-sensitive or completely resistant to Compound 1; the unresponsiveness to Compound 1 treatment was associated with inadequate accumulation of p53 protein and/or its transcriptional targets BAX and PUMA.

[2] = test system: leukemic cells from TP53 WT AML patients; assay: PharmaFlow test (Vivia), cytotoxic effect on leukemic cells in AML patient BM samples; format: cell-based, human
MV4-11 AML cell line = assay: Compound washout experiment in MV4-11 (CK1α, p53 and downstream events); format: cell-based; details: 0.3 μM for 12 hours followed by washout
[3] = test system: MV-4-11 AML xenograft model; assay: Single dose PK/PD and efficacy studies, MV-4-11 AML xenograft model; format: in vivo, mice
Procedure: The CK1α degradation activity and subsequent antitumor activity of Compound 1 in vivo was tested in two TP53 WT AML cell line-derived xenograft models. The depth and duration of CK1α degradation was dose-dependent.
Based on single dose pharmacokinetic (PK)/pharmacodynamics (PD) and efficacy studies with the MV-4-11 AML xenograft model, nearly 90% degradation of CK1α at 2 hours post-dose and 50% suppression through 16 hours a day was maintained when the tumor Compound 1 concentration was >0.1 μM. Maintenance of >0.1 μM Compound 1 in tumor, and this degree of CK1α degradation with daily dosing at 3 mg/kg, led to a 73-99% reduction in tumor burden with significant survival benefit.

[4] = Nonclinical pharmacokinetics in monkeys; format: in vivo
Text: The systemic clearance of Compound 1 was low and the volume of distribution was high in rats and monkeys. […] Notable sex differences in PK were not observed in either species. Compound 1 had good oral bioavailability (≥50%) in rats and monkeys.

CYP2C8 = biological target: T1, CYP2C8 (Homo sapiens, UniProt P10632); assay: CYP inhibition in human liver microsomes, CYP2C8; format: in vitro ADME
T1 construct: In human liver microsomes; from tissue; host or cells: human liver microsomes

CYP3A4/5 = assay: CYP inhibition in human liver microsomes, CYP3A4/5; format: in vitro ADME
CYP2C19 = biological target: T2, CYP2C19 (Homo sapiens, UniProt P33261); assay: CYP inhibition in human liver microsomes, CYP2C19; format: in vitro ADME
T2 construct: In human liver microsomes; from tissue; host or cells: human liver microsomes

[5] = test system: Salmonella typhimurium strains (TA1535, TA1537, TA98, TA100); assay: Bacterial reverse mutation test, Salmonella typhimurium; format: cell-based
Procedure: Compound 1 was tested in Salmonella typhimurium strains (TA1535, TA1537, TA98, TA100) and Escherichia coli strain WP2 uvrA at a range of concentrations up to 5000 μg/plate (the standard limit concentration for this assay), in the presence and absence of a supplemented rat liver fraction (S9 mix), using the plate incorporation version of the bacterial reverse mutation test. Dimethyl sulfoxide (DMSO) was used as the solvent.
The mean revertant colony counts for the negative controls were within the laboratory historical control range. Bacteria were also incubated with standard positive controls, and the response of the various bacterial strains to these agents confirmed the sensitivity of the test system and the activity of the S9 mix. Therefore, the results from both the negative and positive controls confirmed the validity of the assay.
No substantial increases in revertant colony numbers were obtained with any of the tester strains, following exposure to Compound 1 at any concentration, in either the presence or absence of S9 mix. Therefore, Compound 1 was considered to be negative for the induction of mutagenicity in this in vitro assay.

[6] = GLP repeat-dose toxicity and toxicokinetics study in monkeys; format: in vivo, cynomolgus monkeys; details: for AUC / Cmax: plasma, po
Procedure: Cardiovascular assessments (electrocardiograms [ECGs] and heart rates) were conducted in conscious cynomolgus monkeys as part of the Good Laboratory Practice (GLP)-compliant repeat dose toxicity study. In this study, Compound 1 was administered by oral gavage to Cynomolgus monkeys (5/sex/group) in Groups 1-5 at doses of 0 (0.5% (w/v) Methylcellulose, 0.25% (v/v) Tween 80 in 50 mM citrate buffer pH 3), 0.03, 0.1, 0.1 and 0.3 mg/kg, respectively, intermittently using 2 different dosing regimens. Groups 2 and 3 animals were dosed for 7 consecutive days in each 4-week cycle for 2 cycles (Regimen 1: on Days 1-7 and 29-35), whereas Groups 4 and 5 animals were dosed twice weekly for 4 weeks (Regimen 2: on Days 1, 4, 8, 11, 15, 18, 22 and 25). A combination of both dosing regimens (Days 1-7, 8, 11, 15, 18, 22, 25, and 29-35) was used for administration of the vehicle to the control animals. A 9-lead ECG recording was made on all animal during pretest and on all animals in Groups 4 and 5 on Day 22 (1 hour postdose±15 minutes) and on all animals in Groups 1, 2 and 3 during Week 5 (1 hour postdose±15 minutes) using standard limb leads I, II and III; augmented leads aVR, aVL and aVF as well as chest leads MV1, MV2 and MV3. All ECGs were performed while the unanesthetized animal was sitting in an up-right position in a restraint chair. Qualitative (visual inspection) and quantitative assessments including heart rates and PR, QRS, RR, QT, and QTc intervals were performed. QTc was calculated using Bazett's formula.
In a repeat-dose toxicity study in monkeys, Compound 1 was administered by oral gavage intermittently using 2 different dosing regimens. Animals in Regimen 1 were dosed for 7 consecutive days in each 4-week cycle for 2 cycles (0.03 or 0.1 mg/kg on Days 1-7 and 29-35), whereas animals in Regimen 2 were dosed twice weekly for 4 weeks (0.1 or 0.3 mg/kg on Days 1, 4, 8, 11, 15, 18, 22 and 25).
End of dosing necropsy was performed on the day after the last dose administration. A 4-week recovery period was included to assess reversibility of findings. Administration of Compound 1 was associated with mortality at 0.1 mg/kg using Regimen 1 during the recovery phase. Three animals (2 males and 1 female) were euthanized for welfare reasons and one female was found dead due to reduction (marked to severe) in BM cellularity resulting in severe leukopenia and likely bacteremia, as well as in severe thrombocytopenia with disseminated petechial hemorrhage.

[7] = both sexes, cynomolgus monkey, 0.03 mg/kg, Regimen 1, sexes combined
[8] = both sexes, cynomolgus monkey, 0.1 mg/kg, Regimen 2, sexes combined

T2 sequence (P33261 whole entry): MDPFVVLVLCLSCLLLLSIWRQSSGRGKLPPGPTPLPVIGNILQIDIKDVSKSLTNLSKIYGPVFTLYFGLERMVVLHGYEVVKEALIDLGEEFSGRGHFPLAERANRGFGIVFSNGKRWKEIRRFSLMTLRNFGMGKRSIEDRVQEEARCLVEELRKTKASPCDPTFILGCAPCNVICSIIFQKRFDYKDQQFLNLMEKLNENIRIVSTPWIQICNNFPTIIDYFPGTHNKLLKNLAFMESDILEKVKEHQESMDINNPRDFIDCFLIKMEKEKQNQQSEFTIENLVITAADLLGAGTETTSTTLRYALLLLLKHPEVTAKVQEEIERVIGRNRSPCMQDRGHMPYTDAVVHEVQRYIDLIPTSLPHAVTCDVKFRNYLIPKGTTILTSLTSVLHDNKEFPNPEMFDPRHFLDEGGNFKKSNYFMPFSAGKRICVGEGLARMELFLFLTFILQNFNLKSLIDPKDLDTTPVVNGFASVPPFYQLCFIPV
T1 sequence (P10632 whole entry): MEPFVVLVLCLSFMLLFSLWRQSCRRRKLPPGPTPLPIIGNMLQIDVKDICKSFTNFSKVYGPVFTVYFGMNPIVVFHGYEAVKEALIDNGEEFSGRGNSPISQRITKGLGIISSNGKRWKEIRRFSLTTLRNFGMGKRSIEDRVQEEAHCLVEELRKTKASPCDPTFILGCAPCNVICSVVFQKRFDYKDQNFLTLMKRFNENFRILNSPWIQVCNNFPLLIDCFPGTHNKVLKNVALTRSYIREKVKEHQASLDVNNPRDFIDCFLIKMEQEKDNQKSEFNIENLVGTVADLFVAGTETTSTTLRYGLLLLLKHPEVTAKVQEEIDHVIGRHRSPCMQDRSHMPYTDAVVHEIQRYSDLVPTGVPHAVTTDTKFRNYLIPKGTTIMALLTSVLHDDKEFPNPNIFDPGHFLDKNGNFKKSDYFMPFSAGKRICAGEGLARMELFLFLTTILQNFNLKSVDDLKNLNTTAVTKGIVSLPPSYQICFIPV

In the case of `O=C1CC[C@H](N2Cc3cc(C(=O)N[C@H](c4ncccc4Cl)C(F)(F)F)ccc3C2=O)C(=O)N1` [Compound 1, N-((R)-1-(3-chloropyridin-2-yl)-2,2,2-trifluoroethyl)-2-((S)-2,6-dioxopiperidin-3-yl)-1-oxoisoindoline-5-carboxamide], the sensitivity to treatment [1] is reported as “insensitive”, the IC50 ([2]; Homo sapiens) is reported as 0.022 to 0.412 µM and the “number of BM samples with sensitive leukemic cells” value ([2]; out of 9 AML patient BM samples) is reported as 5. The “persistence of p53 downstream events (p21, phosphor-Ser139-Histone H2A.X, caspase 3 cleavage) after washout” value (MV4-11 AML cell line) was “at least 10 hours”, the “degradation of CK1α” value ([3]; 2 hours post-dose, tumor concentration >0.1 μM) was ~90% and the “CK1α degradation in AML xenograft tumors” value ([3]; AML xenograft tumors) was “significantly degraded”. The “reduction in tumor burden” value ([3]; daily dosing at 3 mg/kg) was 73-99%, the “suppression of CK1α” value ([3]; maintained through 16 hours a day, tumor concentration >0.1 μM) was 50% and the “accumulation following multiple doses” value [4] was “No accumulation”. For the same compound, the systemic clearance [4] was “low”, the volume of distribution [4] was “high” and the bioavailability ([4]; monkey, in vivo, po) was ≥ 50%. The half-life ([4]; monkey, in vivo, read-out: terminal half-life) was 2.3 to 4.4 h, the time-dependent inhibition (CYP2C8; CYP2C8, 30-minute preincubation with NADPH) was “not a time-dependent inhibition” and the IC50 (CYP2C8; human liver microsomes, CYP2C8) was > 30 µM. The IC50 (CYP3A4/5; human liver microsomes, CYP3A4/5) was > 30 µM, the inhibition at 30 min, 30 µM (CYP3A4/5; human, liver microsomes, CYP3A4/5, at 30 μM, 30-minute preincubation with NADPH, read-out: time-dependent inhibition) was < 20% and the time-dependent inhibition (CYP2C19; CYP2C19, 30-minute preincubation with NADPH) was “not a time-dependent inhibition”. The inhibitory effect (CYP2C19; human liver microsomes, CYP2C19) was ≤ 25%, the “toxicity to the bacteria” value ([5]; highest concentrations tested) was “non-toxic” and the “induction of mutagenicity (revertant colony numbers)” value ([5]; up to 5000 μg/plate, presence and absence of S9 mix) was “negative”. For the same compound, the lethality ([6]; 0.1 mg/kg, Regimen 1, during the recovery phase) was “mortality”, the “sex-combined mean maximum observed plasma concentration” value ([6]; 0.1 mg/kg/day, Regimen 1, Day 34) was 31.9 ng/mL and the “fold higher than anticipated human Cmax of 0.4 ng/mL” value ([6]; 0.1 mg/kg/day, Regimen 1, Day 34 vs human starting dose 0.1 mg/day) was “approximately 80 fold”. For the same compound, the “sex-combined mean maximum observed plasma concentration” value ([6]; 0.3 mg/kg/day, Regimen 2, Day 15) was 62.6 ng/mL, the “fold higher than anticipated human Cmax of 0.4 ng/mL” value ([6]; 0.3 mg/kg/day, Regimen 2, Day 15 vs human starting dose 0.1 mg/day) was ~157 fold and the “highest non-STD (HNSTD)” value ([6]; Regimen 1) was 0.03 mg/kg. The “highest non-STD (HNSTD)” value ([6]; Regimen 2) was 0.1 mg/kg, the NOAEL ([6]; Regimen 2 (twice weekly for 4 weeks)) was “not identified” and the NOAEL ([6]; both sexes, cynomolgus monkey, in vivo, Regimen 1 (Days 1-7 and 29-35), oral gavage, read-out: NOAEL) was 0.03 mg/kg. The AUC [6, 7] was 51.4 ng·h/mL, the Cmax [6, 7] was 9.95 ng/mL and the AUC [6, 8] was 173 ng·h/mL. The Cmax [6, 8] was 21.5 ng/mL.
